From patent US20160319277A1, “METHODS OF IMPROVED PROTEIN PRODUCTION USING MIRNAs AND SIRNAs” (THE JOHNS HOPKINS UNIVERSITY, priority 2015, published 2016)

System: HEK-CMV-Luc2-Hygro cells
Assay: High-throughput genome-wide siRNA screen and validation screen for luciferase expression
Format: cell-based, human
Settings: for Viable cell density (%) / per cell luciferase yield (%): Table 4, negative control = 100%; for Viable cell density (%) / per cell luciferase yield (%) / per_cell / VIA: primary screen, 72 h; for Luciferase activity (%) / Per cell luciferase yield (%) / Viable cell number (%): Table 6, polyamine pathway gene siRNAs; for per_cell / VIA: Table 3; for per_cell: per cell luciferase yield relative to negative control; for VIA: viable cell density as % of negative control
Description: The Silencer Select™ Human genome siRNA library (Ambion), which targets 21,585 human genes with 3 siRNAs per gene, was used for screening. Each siRNA is arrayed in an individual well (Corning 3570, 384 well, white, solid bottom plates). The transfection was done in duplicates: 0.8 pmol of each siRNA was spotted to a well of a 384-well plate (Corning) and 20 μL of serum-free DMEM containing 0.07 μL of Lipofectamine™ RNAiMax (Life Technologies) was then added to each well. This lipid-siRNA mixture was incubated at ambient temperature for 30 min prior to addition of 4000 cells in 20 μL of DMEM containing 20% FBS (Gibco). After incubating the transfected cells at 37° C. in 5% CO2 for 72 hours, 20 μL of ONE-Glo™ Reagent (Promega) was added to one set of replicates for ‘overall luciferase yield’ quantification and 20 μL of CellTiter-Glo™ Reagent (Promega) was added to the second set of replicates for ‘viable cell density’ measurement. All plates were incubated at room temperature for 20 minutes to stabilize the luminescent signal and the signal was then measured with PerkinElmer Envision 2104 Multilabel™ plate reader.
The 56 genes which got targeted by at least two independent siRNAs (out of three) resulting in enhanced luciferase production with MAD-based z-score>3 from the primary screen were subjected to validation screen using 3 additional Silencer™ siRNAs (Ambion) with different sequences from those used in the primary screen. […] The transfection and assay processes were-the same as the primary genome-wide screen. Data visualization was performed in R computational environment (available on the World Wide Web at R-project.org/) by using ‘hexbin’ and ‘ggplot2’ packages.
The screen generated end-point data for ‘overall luciferase yield’ and ‘viable cell density’ in each well. For each plate, the median value of the negative control wells was set as 100% and was used to normalize corresponding sample wells. The ‘overall luciferase yield’ and ‘viable cell density’ were exported as % of negative control and the median absolute deviation (MAD)-based z-score was calculated for each sample.

Row | Substance | Viable cell density (%) | per cell luciferase yield (%) | per_cell | VIA | other results
1 | 155 (GCCUUGCUCCGAACCUUCATT; chemistry not given here; listed as Homo sapiens) [compound 155] | 94.839% | 169.972% | – | – | Luciferase activity (%): 161.1%; Per cell luciferase yield (%): 169.9%; Viable cell number (%): 94.8%
2 | 158 (CUUCGACAGUACUUCCGGATT; chemistry not given here; listed as Homo sapiens) [compound 158] | 104.020% | 161.613% | – | – | –
3 | 200 (GCAACAGAAUCGAGCAAGATT; chemistry not given here; listed as Homo sapiens) [compound 200] | 105.583% | 154.286% | – | – | –
4 | 175 (CAUUGGUGUUGACAAUCCATT; chemistry not given here; listed as Homo sapiens) [compound 175] | 85.046% | 189.850% | – | – | –
5 | 76 (CUUUUAAUGUUAAACUACATT; chemistry not given here; listed as Homo sapiens) [compound 76] | – | – | 133.6 | 111 | –
6 | 80 (CAAUGAUUCUUACCCUCAATT; chemistry not given here; listed as Homo sapiens) [compound 80] | – | – | 257.9 | 77.17 | –
7 | 145 (CCAGUUCGACCUGAACAAATT; chemistry not given here; listed as Homo sapiens) [compound 145] | 85.750% | 176.019% | – | – | –
8 | 154 (CAACAGUACUUACCGAUGUTT; chemistry not given here; listed as Homo sapiens) [compound 154] | 115.513% | 141.760% | – | – | –
9 | 42 (CAAGUCACCUGUUACCUCATT; chemistry not given here; listed as Homo sapiens) [compound 42] | – | – | 171.8 | 88.96 | –
10 | 157 (GAACAGCUGGGAACCUUCATT; chemistry not given here; listed as Homo sapiens) [compound 157] | 60.645% | 254.007% | – | – | –
11 | 100 (GAACGAGUACAGCAAUAUATT; chemistry not given here; listed as Homo sapiens) [compound 100] | 108.214% | 140.868% | – | – | –
12 | 201 (CCCUGAAGGUUACCUCUUUTT; chemistry not given here; listed as Homo sapiens) [compound 201] | 63.690% | 273.535% | – | – | –
13 | 66 (GCAACAGAAUCGAGCAAGATT; chemistry not given here; listed as Homo sapiens) [compound 66] | – | – | 154.3 | 105.6 | –
14 | 219 (CAGAUGGAUUAUUAGCUGATT; chemistry not given here; listed as Homo sapiens) [compound 219] | – | – | – | – | Luciferase activity (%): 94.9%; Per cell luciferase yield (%): 90.0%; Viable cell number (%): 105.4%
15 | 161 (GCAGUGGACAUAGAAGAGATT; chemistry not given here; listed as Homo sapiens) [compound 161] | 110.815% | 140.658% | – | – | –
16 | 53 (GAACAAAAUAGACCUCUUATT; chemistry not given here; listed as Homo sapiens) [compound 53] | – | – | 162.7 | 101.9 | –
17 | 179 (GUACCUGCGGGAUUACUCATT; chemistry not given here; listed as Homo sapiens) [compound 179] | 90.987% | 160.687% | – | – | –
18 | 101 (GUUCAUCCAUAAGUACAUUTT; chemistry not given here; listed as Homo sapiens) [compound 101] | 83.129% | 238.606% | – | – | –
19 | 160 (GGACCAAGCCCUAAAGGAATT; chemistry not given here; listed as Homo sapiens) [compound 160] | 68.989% | 220.902% | – | – | –
20 | 180 (CCACCCUACUAUGUACUGUTT; chemistry not given here; listed as Homo sapiens) [compound 180] | 93.181% | 185.763% | – | – | –
21 | 111 (CAACCUUAUUAUCAUUGAATT; chemistry not given here; listed as Homo sapiens) [compound 111] | 49.133% | 300.611% | – | – | –

Row | Substance | Viable cell density (%) | per cell luciferase yield (%) | per_cell | VIA | other results
22 | 147 (GUUUCGACCUCGAUCCAGATT; chemistry not given here; listed as Homo sapiens) [compound 147] | 61.490% | 256.085% | – | – | –
23 | 126 (GGUGCUCUCGGUUGCACAATT; chemistry not given here; listed as Homo sapiens) [compound 126] | 82.333% | 187.362% | – | – | –
24 | 78 (CGGAAUCAAUGAUCCUGUATT; chemistry not given here; listed as Homo sapiens) [compound 78] | – | – | 212.7 | 71.39 | –
25 | 164 (GCAGGCACAUGGUUCCUCUTT; chemistry not given here; listed as Homo sapiens) [compound 164] | 83.512% | 259.478% | – | – | –
26 | 68 (CAGGUAGUGUAAGCCCUCATT; chemistry not given here; listed as Homo sapiens) [compound 68] | – | – | 303 | 66.87 | –
27 | 79 (AAGUCAACAUAGCCCGAAATT; chemistry not given here; listed as Homo sapiens) [compound 79] | – | – | 145.7 | 111.5 | –
28 | 209 (GAACUUCACAAGUUCCUCATT; chemistry not given here; listed as Homo sapiens) [compound 209] | 84.418% | 228.634% | – | – | –
29 | 82 (GUCCUAUCACCGUAUCUUATT; chemistry not given here; listed as Homo sapiens) [compound 82] | – | – | 266.6 | 55.96 | –
30 | 65 (GCCUAGGAGUUAUCCUCUATT; chemistry not given here; listed as Homo sapiens) [compound 65] | – | – | 137.6 | 112.2 | –
31 | 44 (CAACAGAUCAGAGAACAAATT; chemistry not given here; listed as Homo sapiens) [compound 44] | – | – | 156.4 | 92.43 | –
32 | 119 (CUGCCGCAACAAUAAGAAATT; chemistry not given here; listed as Homo sapiens) [compound 119] | 82.950% | 171.198% | – | – | –
33 | 41 (CAACAGUACUUACCGAUGUTT; chemistry not given here; listed as Homo sapiens) [compound 41] | – | – | 141.8 | 115.5 | –
34 | 133 (GAACUUCAAUGGAAAACAUTT; chemistry not given here; listed as Homo sapiens) [compound 133] | 63.577% | 250.367% | – | – | –
35 | 131 (GGAGAAAGAAUCAACGGAATT; chemistry not given here; listed as Homo sapiens) [compound 131] | 70.586% | 284.565% | – | – | –
36 | 62 (AGGUCAAUGUGACUUUCCATT; chemistry not given here; listed as Homo sapiens) [compound 62] | – | – | 161.8 | 105 | –
37 | 222 (GACUUUCACUUCCGCCUUATT; chemistry not given here; listed as Homo sapiens) [compound 222] | – | – | – | – | Luciferase activity (%): 74.3%; Per cell luciferase yield (%): 84.7%; Viable cell number (%): 87.7%
38 | 77 (CAAUGGAACAAUCAAAGUUTT; chemistry not given here; listed as Homo sapiens) [compound 77] | – | – | 180.8 | 89.61 | –
39 | 96 (ACACUCUUGUGGUCAAGAATT; chemistry not given here; listed as Homo sapiens) [compound 96] | 73.809% | 227.741% | – | – | –
40 | 150 (CGCUUUAACUGGAAGCUCUTT; chemistry not given here; listed as Homo sapiens) [compound 150] | 103.662% | 146.993% | – | – | –
41 | 86 (CAUUGGUUUUGAUGAGUAUTT; chemistry not given here; listed as Homo sapiens) [compound 86] | – | – | 226.7 | 64.38 | –
